Results on 19 molecules are retold here after ChEMBL document CHEMBL5230103, “Hydroxamic acid hybrids as the potential anticancer agents: An Overview” (Eur J Med Chem, 2020).

One assay deals with PC-3. Put plainly: Cytotoxicity against human PC-3 cells assessed as inhibition of cell growth by SRB assay. The format is functional, cell-based. (The SRB assay estimates cell density from bound dye.)
For a further assay, the system named is MV4-11. Put plainly: Cytotoxicity against human MV4-11 cells assessed as inhibition of cell growth by SRB assay. The format is functional, cell-based.
The target in the next assay is Histone deacetylase. Description: Inhibition of HDAC (unknown origin). The format is protein assay, Homo sapiens.

The IC50 is the concentration at which inhibition is half-maximal.

As to `CC(C)n1cnc2c(-c3cccc(OCC(=O)NO)c3)nc(N3CCOCC3)nc21`, the IC50 is 160 nM in the assay on PC-3, 160 nM in the assay on MV4-11 and 35 nM on Histone deacetylase.

With `CC(C)n1cnc2c(-c3cccc(COCCCCC(=O)NO)c3)nc(N3CCOCC3)nc21`, the figures for the IC50 in the assay on PC-3, with MV4-11 and against Histone deacetylase were 160 nM, 160 nM and 35 nM, respectively.

On to `CC(C)n1cnc2c(-c3ccc(OCCCCCCCC(=O)NO)cc3)nc(N3CCOCC3)nc21`, for which the IC50 is 970 nM with PC-3, 970 nM in the assay on MV4-11 and 278 nM against Histone deacetylase.

With `CC(C)n1cnc2c(-c3ccc(COCCCCCCC(=O)NO)cc3)nc(N3CCOCC3)nc21`, the IC50 with PC-3 came out at 970 nM; in the assay with MV4-11 it was 970 nM; at Histone deacetylase, 278 nM.

In the case of `CC(C)n1cnc2c(-c3cccc(OCCCCCCCC(=O)NO)c3)nc(N3CCOCC3)nc21`, the values for the IC50 in the assay on PC-3, in the assay with MV4-11 and on Histone deacetylase were 160 nM, 160 nM and 35 nM, respectively.

Consider `CC(C)n1cnc2c(-c3ccc(COCCCCCC(=O)NO)cc3)nc(N3CCOCC3)nc21`, for which the IC50 with PC-3 was 970 nM; with MV4-11, 970 nM; on Histone deacetylase, 278 nM.

On to `CC(C)n1cnc2c(-c3cccc(COCCCCCCCC(=O)NO)c3)nc(N3CCOCC3)nc21`, for which the IC50 in the assay on PC-3 turned out to be 160 nM; in the assay on MV4-11, 160 nM; at Histone deacetylase it was 35 nM.

On to `CC(C)n1cnc2c(-c3cccc(COCC(=O)NO)c3)nc(N3CCOCC3)nc21`, for which the figures for the IC50 in the assay on PC-3, with MV4-11 and against Histone deacetylase were 160 nM, 160 nM and 35 nM, respectively.

Regarding `CC(C)n1cnc2c(-c3cccc(OCCCCCC(=O)NO)c3)nc(N3CCOCC3)nc21`, the IC50 worked out at 160 nM with PC-3, 160 nM in the assay with MV4-11 and 35 nM at Histone deacetylase.

With `CC(C)n1cnc2c(-c3cccc(COCCCCCCC(=O)NO)c3)nc(N3CCOCC3)nc21`, the IC50 in the assay with PC-3 came out at 160 nM; in the assay on MV4-11, 160 nM; against Histone deacetylase, 35 nM.

Take `CC(C)n1cnc2c(-c3cccc(OCCCCCCC(=O)NO)c3)nc(N3CCOCC3)nc21`: the IC50 in the assay on PC-3 came to 160 nM; in the assay on MV4-11 it was 160 nM; at Histone deacetylase, 35 nM.

With `CC(C)n1cnc2c(-c3ccc(OCCCCCCC(=O)NO)cc3)nc(N3CCOCC3)nc21`, the values for the IC50 with PC-3, in the assay with MV4-11 and on Histone deacetylase were 970 nM, 970 nM and 278 nM, respectively.

As to `CC(C)n1cnc2c(-c3ccc(COCCCCC(=O)NO)cc3)nc(N3CCOCC3)nc21`, the IC50 in the assay with PC-3 was found to be 970 nM; in the assay with MV4-11, 970 nM; at Histone deacetylase, 278 nM.

As to `CC(C)n1cnc2c(-c3ccc(OCCCCC(=O)NO)cc3)nc(N3CCOCC3)nc21`, the IC50 in the assay on PC-3 was 970 nM; in the assay with MV4-11 it was 970 nM; on Histone deacetylase, 278 nM.

Consider `CC(C)n1cnc2c(-c3cccc(COCCCCCC(=O)NO)c3)nc(N3CCOCC3)nc21`, for which the results for the IC50 with PC-3, with MV4-11 and on Histone deacetylase were 160 nM, 160 nM and 35 nM, respectively.

In the case of `CC(C)n1cnc2c(-c3ccc(OCC(=O)NO)cc3)nc(N3CCOCC3)nc21`, the figures for the IC50 in the assay on PC-3, in the assay with MV4-11 and at Histone deacetylase were 970 nM, 970 nM and 278 nM, respectively.

Regarding `CC(C)n1cnc2c(-c3ccc(COCC(=O)NO)cc3)nc(N3CCOCC3)nc21`, the values for the IC50 in the assay on PC-3, in the assay with MV4-11 and against Histone deacetylase were 970 nM, 970 nM and 278 nM, respectively.

Consider `CC(C)n1cnc2c(-c3ccc(OCCCCCC(=O)NO)cc3)nc(N3CCOCC3)nc21`, for which the concentration for half-maximal inhibition (IC50) came to 970 nM in the assay with PC-3, 970 nM in the assay on MV4-11 and 278 nM at Histone deacetylase.

As for `CC(C)n1cnc2c(-c3ccc(COCCCCCCCC(=O)NO)cc3)nc(N3CCOCC3)nc21`, the half-maximal inhibitory concentration (IC50) in the assay with PC-3 was 970 nM; in the assay on MV4-11, 970 nM; on Histone deacetylase it was 278 nM.
